The results in this text go back to patent US5922742A, “Pyridinyl-2-cyclopenten-1-ones as selective cyclooxygenase-2 inhibitors” (Merck Frosst Canada, priority 1997, dated 1999).

Assay [1] addresses T1, Cox-2 (Homo sapiens, UniProt P35354).
T1 construct: active only after incubation of human whole blood with LPS, which induces COX-2; endogenous in cells; host or cells: fresh heparinized human whole blood from volunteers, incubated with LPS
T1 sequence (P35354 18-604): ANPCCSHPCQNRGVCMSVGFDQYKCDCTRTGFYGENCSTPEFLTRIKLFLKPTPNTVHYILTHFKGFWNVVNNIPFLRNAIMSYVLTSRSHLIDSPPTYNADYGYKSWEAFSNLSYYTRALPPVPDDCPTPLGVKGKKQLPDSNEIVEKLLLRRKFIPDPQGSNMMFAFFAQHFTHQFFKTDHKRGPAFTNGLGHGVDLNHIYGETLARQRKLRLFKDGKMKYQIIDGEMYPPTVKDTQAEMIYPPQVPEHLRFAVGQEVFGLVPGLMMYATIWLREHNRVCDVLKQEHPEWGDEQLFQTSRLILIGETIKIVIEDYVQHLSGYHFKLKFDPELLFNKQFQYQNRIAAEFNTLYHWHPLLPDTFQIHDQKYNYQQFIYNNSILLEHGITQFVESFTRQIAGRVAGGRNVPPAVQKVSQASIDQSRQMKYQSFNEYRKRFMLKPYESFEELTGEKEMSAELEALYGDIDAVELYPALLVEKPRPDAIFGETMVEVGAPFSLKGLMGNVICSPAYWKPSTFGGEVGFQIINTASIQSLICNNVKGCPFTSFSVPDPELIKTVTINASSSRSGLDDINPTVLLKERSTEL
Kind of assay: Human whole blood assay, COX-2 (LPS-induced PGE2 production). The class given is cell-based. To be noted: for Selectivity Ratio: Cox-1 U937 IC50 / Cox-2 Whole Blood IC50; for IC50: human whole blood, LPS-induced PGE2, 24 hours at 37° C. The source says: As well, platelets in whole blood contain a large amount of the COX-1 enzyme. Immediately following blood clotting, platelets are activated through a thrombin-mediated mechanism. This reaction results in the production of thromboxane B2 (TxB2) via activation of COX-1. Thus, the effect of test compounds on TxB2 levels following blood clotting can be examined and used as an index for COX-1 activity. Therefore, the degree of selectivity by the test compound can be determined by measuring the levels of PGE2 after LPS induction (COX-2) and TxB2 following blood clotting (COX-1) in the same assay.
A. COX-2 (LPS-induced PGE2 production)
Fresh blood is collected in heparinized tubes by venipuncture from both male and female volunteers. The subjects have no apparent inflammatory conditions and have not taken any NSAIDs for at least 7 days prior to blood collection. Plasma is immediately obtained from a 2 mL blood aliquot to use as blank (basal levels of PGE2). The remaining blood is incubated with LPS (100 μg/ml final concentration, Sigma Chem, #L-2630 from E. coli; diluted in 0.1% BSA (Phosphate buffered saline) for 5 minutes at room temperature. Five hundred μL aliquots of blood are incubated with either 2μL of vehicle (DMSO) or 2 μL of a test compound at final concentrations varying from […] to 30μM for 24 hours at 37° C. At the end of the incubation, the blood is centrifuged at 12,000×g for 5 minutes to obtain plasma. A 100μL aliquot of plasma is mixed with 400 μL of methanol for protein precipitation. The supernatant is obtained and is assayed for PGE2 using a radioimmunoassay kit (Amersham, RPA#530) after conversion of PGE2 to its methyl oximate derivative according to the manufacturer's procedure. […]

Assay [2] concerns carrageenan-induced paw edema in rats. Kind of assay: Rat paw edema assay (carrageenan). Type of assay: in vivo, Male Sprague-Dawley rats. As to conditions: po, 1 hr before carrageenan, paw volume 3 hr after. How it is done: Male Sprague-Dawley rats (150-200 g) are fasted overnight and are given, po, either vehicle (1% methocel or 5% Tween 80) or a test compound. One hr later, a line is drawn using a permanent marker at the level above the ankle in one hind paw to define the area of the paw to be monitored. The paw volume (V0) is measured using a plethysmometer (Ugo-Basile, Italy) based on the principle of water displacement. The animals are then injected subplantarly with 50 μt of 1% carrageenan solution in saline (FMC Corp, Maine) into the paw using an insulin syringe with a 25-gauge needle (i.e. 500 μg carrageenan per paw). Three hr later, the paw volume (V3) is measured and the increases in paw volume (V3 -V0) are calculated. The animals are sacrificed by CO2 asphyxiation and the absence or presence of stomach lesions scored. Data is compared with the vehicle-control values and percent inhibition calculated. All treatment groups are coded to eliminate observer bias.

In assay [3] the target is T2, Cox-1 (Homo sapiens, UniProt P23219).
T2 construct: human U-937 cells (which specifically express COX-1); endogenous in cells; host or cells: human U-937 cells (whole cells or their microsomes)
T2 sequence (P23219 24-599): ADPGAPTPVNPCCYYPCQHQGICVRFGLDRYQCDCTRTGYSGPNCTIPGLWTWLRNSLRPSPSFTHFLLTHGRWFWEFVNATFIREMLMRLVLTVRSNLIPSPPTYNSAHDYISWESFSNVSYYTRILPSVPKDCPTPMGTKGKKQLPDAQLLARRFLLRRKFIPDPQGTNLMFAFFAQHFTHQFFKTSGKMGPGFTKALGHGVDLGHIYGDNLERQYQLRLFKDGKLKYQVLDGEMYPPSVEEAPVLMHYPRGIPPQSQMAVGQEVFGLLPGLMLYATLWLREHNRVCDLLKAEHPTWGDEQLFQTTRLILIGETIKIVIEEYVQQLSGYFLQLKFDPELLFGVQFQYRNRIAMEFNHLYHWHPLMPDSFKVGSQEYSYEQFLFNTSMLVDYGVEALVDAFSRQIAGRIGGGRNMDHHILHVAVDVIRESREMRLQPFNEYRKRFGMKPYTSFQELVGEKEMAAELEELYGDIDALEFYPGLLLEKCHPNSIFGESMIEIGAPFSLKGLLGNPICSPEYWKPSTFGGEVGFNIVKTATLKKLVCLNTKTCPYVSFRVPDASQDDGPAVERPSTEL
Kind of assay: Cox-1 U937 (PGE2 synthesis). The class given is cell-based. How it is done: Compounds are tested as inhibitors of cyclooxygenase activity in whole cell cyclooxygenase assays. Both of these assays measure prostaglandin E2 synthesis in response to AA, using a radioimmunoassay. Cells used for these assays are human osteosarcoma 143 cells (which specifically express COX-2) and human U-937 cells (which specifically express COX-1). […] For cyclooxygenase assays, osteosarcoma cells are cultured in 1 mL of media in 24-well multidishes (Nunclon) until confluent (1-2 ×10^5 cells/well). U-937 cells are grown in spinner flasks and resuspended to a final density of 1.5×10^6 cells/mL in 24well multidishes (Nunclon). Following washing and resuspension of osteosarcoma and U-937 cells in 1 mL of HBSS, 1 μL of a DMSO solution of test compound or DMSO vehicle is added, and samples gently mixed. All assays are performed in triplicate. […] AA (peroxide-free, Cayman Chemical) is prepared as a 10 mM stock solution in ethanol and further diluted 10-fold in HBSS. […] Control samples are incubated with ethanol vehicle instead of AA. Samples are again gently mixed and incubated for a further 10 min. at 37° C. For osteosarcoma cells, reactions are then stopped by the addition of 100 μL of 1N HCl, with mixing and by the rapid removal of the solution from cell monolayers. For U-937 cells, reactions are stopped by the addition of 100 μL of 1N HCl, with mixing. Samples are then neutralized by the addition of 100 μL of 1N NaOH and PGE2 levels measured by radioimmunoassay. Assay of COX-1 Activity from U937 cell microsomes U 937 cells are pelleted by centrifugation at 500×g for 5 min and washed once with phosphate-buffered saline and repelleted. Cells are resuspended in homogenization buffer consisting of 0.1M Tris-HCl, pH 7.4, 10 mM EDTA, 2 μg/ml leupeptin, 2 μg/ml soybean trypsin inhibitor, 2 μg/ml aprotinin and 1 mM phenyl methyl sulfonyl fluoride. The cell suspension is sonicated 4 times for 10 sec and is centrifuged at 10,000×g for 10 min at 4° C. The supernatant is centrifuged at 100,000×g for 1 hr at 4° C. The 100,000×g microsomal pellet is resuspended in 0.1M Tris-HCl, pH 7.4, 10 mM EDTA to approximately 7 mg protein/ml and stored at -80° C. […] Assays are performed in duplicate in a final volume of 250 μl. Initially, 5 μl of DMSO vehicle or drug in DMSO are added to 20 μl of 0.1M Tris-HCl buffer, pH 7.4 containing 10 mM EDTA in wells of a 96-deepwell polypropylene titre plate. 200 μl of the microsomal preparation are then added and pre-incubated for 15 min at room temperature before addition of 25 μl of […] arachidonic acid in 0.1M Tris-HCl and 10 mM EDTA, pH 7.4. Samples are incubated for 40 min at room temperature and the reaction is stopped by the addition of 25 μl of 1N HCl. Samples are neutralized with 25 μl of 1N NaOH prior to quantitation of PGE2 content by radioimmunoassay (Dupont-NEN or Amersham assay kits). Cyclooxygenase activity is defined as the difference between PGE2 levels in samples incubated in the presence of arachidonic acid and ethanol vehicle. Compounds of the present invention are inhibitors of COX-2 and are thereby useful in the treatment of COX-2 mediated diseases as enumerated above. The activities of the compounds against cyclooxygenase may be seen in the representative results shown below. In the assay, inhibition is determined by measuring the amount of prostaglandin E2 (PGE2) synthesized in the presence of AA, COX-1 or COX-2 and a putative inhibitor. […]

The IC50 is the concentration that gives 50% inhibition. Low values mean higher potency, high ones lower potency. Broadly, the ED50 is the dose at which the effect has come halfway, by size or by number of responders. High values mean weaker potency, low ones greater potency. On to `CS(=O)(=O)c1ccc(C2=C(c3ccc(F)cc3)C(=O)CC2)cc1` [A], for which, in assay [1], the “Selectivity Ratio” value stood at 5 and inhibition was half-maximal at 90 nM (IC50). The molecule further displayed a median effective dose (ED50) in assay [2] of 3 mg/kg.
For the molecule `CS(=O)(=O)c1ccc(C2=C(c3ccccc3)C(=O)CC2)cc1` [B], in assay [1], the “Selectivity Ratio” value came out at 10 and the half-inhibitory concentration (IC50) stood at 190 nM. The molecule also came in with a half-inhibitory concentration (IC50) in assay [3] of 1900 nM. This molecule also yielded an ED50 in assay [2] of 10 mg/kg.
On to `CS(=O)(=O)c1ccc(C2=C(c3ccc4cccnc4c3)C(=O)OC2)cc1` [C], for which, in assay [1], the “Selectivity Ratio” value came out at 1 and the IC50 was 590 nM. The molecule further gave a half-maximal inhibitory concentration (IC50) in assay [3] of 600 nM.
For the molecule `CS(=O)(=O)c1ccc(C2=C(c3cccnc3)C(=O)CC2)cc1` [Example 1, 3-(4-(Methylsulfonyl)phenyl)-2-(3-pyridinyl)-2-cyclopenten-1-one], in assay [1], the “Selectivity Ratio” value amounted to 52 and the 50% inhibitory concentration (IC50) was 580 nM. The molecule further showed a 50% inhibitory concentration (IC50) in assay [3] of 30000 nM. Besides, the ED50 in assay [2] stood at 1.7 mg/kg.
In assay [3], `CS(=O)(=O)c1ccc(C2=C(c3cncc(Cl)c3)C(=O)CC2)cc1` [Example 2, 2-(5-Chloropyridin-3-yl)-3-(4-(methylsulfonyl)phenyl)-2-cyclopenten-1-one] yielded an IC50 of over 100000 nM.
Take `CS(=O)(=O)c1ccc(C2=C(c3ccc(Cl)cn3)C(=O)CC2)cc1` [Example 10, 2-(5-Chloro-2-pyridinyl)-3-(4-(methylsulfonyl)phenyl)-2-cyclopenten-1-one]: in assay [1], the “Selectivity Ratio” value is listed as 78 and the IC50 was 460 nM. For the same molecule, inhibition in assay [3] was half-maximal at 36000 nM (IC50). The molecule further displayed a median effective dose (ED50) in assay [2] of 2.5 mg/kg.
